# Data: patent publication US7446127B2, “Chroman carboxylic acid derivatives for the treatment of diabetes and lipid disorders” (SK Holdings Co, Ltd., priority 2003, dated 2008)
# Tested on: differentiated 3T3-L1 adipocytes
# Assay: Glucose transport assay (2-deoxy-D-glucose uptake)
# Format: cell-based
# Conditions: 48 hr; for Fold Stimulation (50 μM) of 2-deoxy-D-glucose uptake, Insulin + Compound: 50 μM compound + 100 nM insulin; for fold induction at 50 µM: Mus musculus, 50 μM compound alone, read-out: Fold Stimulation (50 μM) of 2-deoxy-D-glucose uptake, Compound only
# Description: 3T3-L1 fibroblasts (American Type Culture Collection) were plated and grown for 2 days postconfluence in Dulbecco's modified Eagle's medium (DMEM; 4,500 mg/L glucose, HyClone) supplemented 10% FBS, 10 μg/mL penicillin and streptomycin in an atmosphere of 5% CO2 at 37° C. Adipocyte differentiation was then induced using standard protocol. After 48 hr, the differentiation medium was replaced with maintenance medium containing DMEM supplemented with 10% FBS. The maintenance medium was changed every 3 days until the cells were utilized for experimentation. Glucose transport activity was measured in the presence or absence of insulin and the protocol was modified from Kletzien, R F et al. (1992) Molecular Pharmacology 41:393-398. Briefly, differentiated 3T3-L1 adipocytes were incubated with vehicle (DMSO), insulin (100 nM) alone, test compound (50 μM) alone and a combination of insulin (100 nM)+test compound (50 μM) for 48 hr. Medium was changed twice a day in the presence of compound. Glucose uptake was measured using 2-Deoxy-D-[1−^3H] glucose as label after 90 min incubation with each compound. […] In the series of compounds, one of the best result was obtained with 7-[2-(5-methyl-2-phenyl-4-oxazolyl)-ethoxy]-chroman-3-carboxylic acid (Example 1).
Structure (SMILES),"Fold Stimulation (50 μM) of 2-deoxy-D-glucose uptake, Insulin + Compound [fold]",fold induction at 50 µM
Cc1oc(-c2ccc(F)cc2)nc1CCOc1ccc2c(c1)OCC(C(=O)O)C2 (centres unmarked) [Example 3],5.9,1.3
"Cc1oc(-c2cccs2)nc1CCOc1ccc2c(c1)OCC(C(=O)O)C2 (centres unmarked) [Example 4, 7-[2-(5-methyl-2-thien-2-yl-1,3-oxazol-4-yl)ethoxy]chromane-3-carboxylic acid]",7.6,1.5
O=C(O)C1COc2cc(OCCc3nc(-c4ccccc4)oc3-c3ccccc3)ccc2C1 (centres unmarked) [Example 5],8.1,1.7
"Cc1oc(-c2ccccc2)nc1COc1ccc2c(c1)OCC(C(=O)O)C2 (centres unmarked) [Example 6, 7-[(2-phenyl-5-methyl-1,3-oxazol-4-yl)methoxy]chromane-3-carboxylic acid]",10.7,1.4
"Cc1oc(-c2ccccc2)nc1CCCOc1ccc2c(c1)OCC(C(=O)O)C2 (centres unmarked) [Example 7, 7-[3-(5-Methyl-2-phenyl-4-oxazolyl)propoxy]chromane-3-carboxylic acid]",6.5,1.4
Cc1oc(-c2ccccc2)nc1CCOc1ccc2c(c1)OCC(C(=O)NS(=O)(=O)c1ccccc1)C2 (centres unmarked) [Example 8],8.8,1.5
Cc1oc(-c2ccccc2)nc1CCOc1ccc2c(c1)OCC(C(=O)NS(C)(=O)=O)C2 (centres unmarked) [Example 9],6.2,1.2
"Cc1oc(-c2ccc(Br)cc2)nc1COc1ccc2c(c1)OCC(C(=O)O)C2 (centres unmarked) [Example 10, 7-[(2-(4-bromophenyl)-5-methyl-1,3-oxazol-4-yl)methoxy]chromane-3-carboxylic acid]",5.1,1
Cc1oc(-c2ccc(-c3ccccc3)cc2)nc1COc1ccc2c(c1)OCC(C(=O)O)C2 (centres unmarked) [Example 11],4.6,1.3
"COC(=O)C1COc2cc(OCCc3nc(-c4ccccc4)oc3C)ccc2C1 (centres unmarked) [Example 12, Methyl 7-[2-(5-Methyl-2-phenyl-4-oxazolyl)ethoxy]chromane-3-carboxylate]",6.0,1.1
"Cc1oc(-c2ccccc2)nc1CCOc1ccc2c(c1)OCC(C(N)=O)C2 (centres unmarked) [Example 13, 7-[2-(5-Methyl-2-phenyl-4-oxazolyl)ethoxy]chromane-3-carboxylic acid amide]",8.8,1.7
"Cc1oc(-c2ccccc2)nc1CCOc1ccc2c(c1)OCC(CC(=O)O)C2 (centres unmarked) [Example 14, {7-[2-(5-Methyl-2-phenyl-oxazol-4-yl)-ethoxy]-chroman-3-yl}-acetic acid]",6.9,1.4
"CCc1ccc(CCOc2ccc(CC3SC(=O)NC3=O)cc2)nc1 (centres unmarked) [Pioglitazone, reference compound]",7.6,1.9
